Measurements: patent US11433068B2, “Treatment of cancers having alterations within the SWI/SNF chromatin remodeling complex” (THE GENERAL HOSPITAL CORPORATION, priority 2016, dated 2022)

Key:
H3K27 = assay: Histone western blot of cells treated with EZH2 inhibitors (FIGS. 6A, 6B); type: cell-based; conditions: UACC257 cell line
From the text: (§1) The G9a and EZH2 methyltransferases are known to target H3K9 and H3K27, respectively.

[1] = test system: G9a-amplified melanoma cell line, K029; assay: Tumor growth of subcutaneously inoculated K029 cells in SCID mice (FIG. 16); type: in vivo; conditions: K029 subcutaneous in SCID mice; 2.5 mg/kg daily ip from 8 days after inoculation
Protocol: G9a-amplified melanoma cell line, K029, was subcutaneously inoculated on SCID mice (5×10^6 cells/[…] PBS). Vehicle (10% DMSO/PBS) or UNC0642 (2.5 mg/kg) was daily administrated by ip injection 8 days after K029 inoculation.

[2] = test system: ARID2-deficient cell lines; assay: Combination therapy heatmaps, cell viability, isogenically matched engineered melanoma lines (FIG. 8); type: cell-based; conditions: ARID2-deficient vs matched lines
From the text: FIG. 8 summarizes the combination therapy on isogenically matched engineered ARID-deficient melanoma cell lines. Heatmaps showing cell viability after treatment with the G9a inhibitor BIX-01294 in combination with other small molecule inhibitors (bromodomain inhibitor JQ1 and BRAF inhibitor PLX).

[3] = test system: melanoma cell lines (n=22); assay: LD50 of melanoma cell lines versus ARID2 mutational status (FIGS. 5A, 5B); type: cell-based; conditions: 22 melanoma cell lines; ARID2 mutant vs other lines
From the text: LD50 value of each melanoma cell line plotted for the two G9a inhibitors UNC0638 and BIX-01294. (n=22). ARID2 mutant cell lines indicated in closed circles.

[4] = test system: ARID-deficient LOX-IMVI cell line; assay: Combination therapy heatmaps, cell viability, endogenous ARID-deficient melanoma lines (FIG. 9); type: cell-based; conditions: G9a inhibitor in combination with HDAC inhibitor SAHA; LOX-IMVI compared to ARID wildtype A375
From the text: FIG. 9 summarizes the combination therapy on endogenous ARID-deficient melanoma cell lines.

[5] = test system: UACC257 human melanoma cells with ARID2 deficiency; assay: Dose response of melanoma cells to the G9a inhibitor (FIG. 2); type: cell-based; conditions: UACC257 shARID2 knockdown vs isogenically matched control (shLuc) cells
Protocol: ARID2 deficiency is simulated the cells using an RNAi shARID2 to knockdown expression of ARID2. For control, the same cell lines are treated with a control RNAi shLuc instead of shARID2.

[6] = test system: ARID2-deficient melanomas UACC62 cells; assay: Quantification of cell number using crystal violet staining (FIGS. 4A, 4B); type: cell-based
ARID2-deficient cells = assay: Selective susceptibility of ARID2-knockdown melanoma lines to G9a inhibitors (FIG. 3); type: cell-based; conditions: ARID2-knockdown of two different melanoma lines
H3K9 = assay: Histone western blot of cells treated with G9a inhibitors (FIGS. 6A, 6B); type: cell-based; conditions: UACC257 cell line
From the text: as §1

[7] = test system: melanoma cell and melanocyte; assay: Viability by cell-titer Glo assay (FIGS. 14A, 14B); type: cell-based; conditions: varying amounts; melanoma cells and melanocytes
Protocol: FIGS. 14A and 14B show melanoma cell and melanocyte are sensitive to G9a inhibitors. Indicated cell types were treated with varying amounts of (FIG. 14A) UNC0638 or (FIG. 14B) BIX01294 and viability was measured by cell-titer Glo assay.

[8] = BIX-01294 in combination with bromodomain inhibitor JQ1

Compound	drug synergy (cell viability) [2, 8]	sensitivity (LD50) versus ARID2 mutation [3]	drug synergy (cell viability) [4]	cell number (crystal violet staining) [6]	sensitivity of ARID2-knockdown cells to G9a inhibitors (ARID2-deficient cells)	methylation marks at H3K9 (histone western blot) (H3K9)	viability (cell-titer Glo) [7]	further results
CC[C@H](C)n1cc(C)c2c(C(=O)NCc3c(C)cc(C)[nH]c3=O)cc(-c3ccc(N4CCNCC4)nc3)cc21 [GSK126]								methylation marks at H3K27 (histone western blot) (H3K27): selective and specific decrease in the methylation marks
COc1cc2c(NC3CCN(C(C)C)CC3)nc(N3CCC(F)(F)CC3)nc2cc1OCCCN1CCCC1 [UNC0642]								tumor growth [1]: effectively suppress tumor growth
Cc1sc2c(c1C)C(c1ccc(Cl)cc1)=N[C@@H](CC(=O)OC(C)(C)C)c1nnc(C)n1-2 [JQ1]	selectively enhanced							
COc1cc2c(NC3CCN(C(C)C)CC3)nc(C3CCCCC3)nc2cc1OCCCN1CCCC1 [UNC0638]		ARID2 mutation predicts the sensitivity	selectively enhanced	selective vulnerability	sensitive	selective and specific decrease in the methylation marks	sensitive	susceptibility to the G9a inhibitor (dose response) [5]: more susceptible
O=C(CCCCCCC(=O)Nc1ccccc1)NO [SAHA, suberoylanilide hydroxamic acid]			selectively enhanced					
COc1cc2nc(N3CCCN(C)CC3)nc(NC3CCN(Cc4ccccc4)CC3)c2cc1OC [BIX-01294]	selectively enhanced	ARID2 mutation predicts the sensitivity	selectively enhanced	selective vulnerability	sensitive	selective and specific decrease in the methylation marks	sensitive	drug synergy (cell viability) ([2]; BIX-01294 in combination with BRAF inhibitor PLX): selectively enhanced
